Test results from patent US20120071539A1, “COMPOUNDS AND METHODS FOR MODULATING THE SILENCING OF A POLYNUCLEOTIDE OF INTEREST” (Emory University, priority 2006, published 2012).
Several values for one entry are separate records, joined by “and”; a condition that tells them apart may be missing. Equal values may be shown once. Entries after “also recorded” stand apart in the source; their conditions may differ.

Key:
[1] = system: siRNA-mediated mRNA degradation; experiment: cell-based reporter screen: human 293 cells stably expressing GFP plus siRNA hairpin against GFP; settings: pilot screen of The Spectrum Collection; FIG. 3, FIG. 4
Procedure: FIG. 2 discloses one embodiment of the cell-based reporter system of the invention. In this example, a human 293-cell line stably expressing a reporter gene, GFP, was used. This cell line was further transfected with a construct that expresses siRNA hairpin against GFP, which can decrease the level of GFP expression. Individual clones were isolated with greatly (although not completely) reduced GFP expression.
Using the above-identified clones, a screen was performed using The Spectrum Collection (MicroSource Discovery Systems, Inc., Gaylordsville, Conn., United States of America), which contains 2000 biologically active and structurally diverse compounds from libraries of known drugs, experimental bioactives, and pure natural products. For example, in one embodiment, a pilot screen of this library identified one inhibitor and one enhancer of siRNA-mediated mRNA degradation.
To identify the chemical compounds that modulate the siRNA and miRNA pathway, a screening strategy was used. A human 293-cell line stably expressing a reporter gene, GFP, was used. This cell line was further transfected with a construct that expresses siRNA hairpin against GFP, which could knock down the expression of GFP. […] Using these clones, a screen was performed using The Spectrum Collection, which contains 2000 biologically active and structurally diverse compounds from libraries of known drugs, experimental bioactives, and pure natural products.
Human 293 cells stably expressing a reporter gene, GFP, were further transfected with a construct that expresses an siRNA hairpin against GFP, which results in the knock-down of the expression of GFP. Transfected cells containing the siRNA suppressed GPF expression were split and then treated with an effective amount of enoxacin (FIG. 4, second panel) and were grown for a period of 24-48 hours.

[2] = system: Clone#3, 293-EGFP-siGFP cells; experiment: plate-reader chemical library screen, GFP signal in Clone#3 cells; format: cell-based, human; settings: 50 mM RNAi-E alone
Excerpt: Further, in some embodiments, additional screens using the same library can be performed to identify other modulators of the siRNA and the miRNA pathways. In some embodiments, instead of examining the GFP signal visually under a microscope, the GFP signal can be quantified using an automatic plate reader. In such embodiments, two additional rounds of screening can be performed. In the first round of screening, the clones can be treated with compounds from a library, e.g., The Spectrum Collection, alone and the GFP level can be quantified after a period of time, e.g., 48 hours. In the second round of screening, the clones can be treated with compounds from a library, e.g., The Spectrum Collection, in the presence of 50 μM RNAi-E, i.e., enoxacin. This assay enables compounds that can modulate the activity of RNAi-E to be identified.
(§1) The presently disclosed chemical library also was screened using a plate reader to quantify the GFP signal intensity. The following screens were conducted: (1) repeating chemical screen using plate reader to quantify the GFP signal (50 mM each drug); (2) treating cells with 50 mM RNAi-I (30 mM each additional drug); and treating cells with […] (30 mM each additional drug).
(§2) For each screen, two types of cells were used: Clone#3 and EGFP. Clone#3 cells are 293-EGFP-siGFP and could be used to identify the modulators of the RNAi pathway. EGFP cells are 293-EGFP only and were used as a control to eliminate the compounds that could kill the cells or interfere GFP signals that are not related to RNAi pathway. The results for each screen are summarized in Table 2 and Table 3, respectively.
(§3) In these three screens, compounds were identified that could either enhance or inhibit RNAi activity in Clone#3, but had no effect on EGFP cells, which would indicate that these compounds might specifically work on RNAi pathway. The modulation of RNAi activity by these compounds was calculated as the percentage of GFP signal to Clone#3 control cells.

EGFP, 293-EGFP cells = experiment: plate-reader chemical library screen, GFP signal in control EGFP cells; format: cell-based, human; settings: GFP signal; 50 mM RNAi-E
Procedure: as §1, §2, §3

[3] = system: shRNA against Luciferase mRNA; experiment: GL-3 luciferase reporter in cells expressing shRNA against luciferase; format: cell-based; settings: FIG. 5
Excerpt: In this example, a luciferase reporter construct GL-3 was transfected into the cells expressing shRNA against Luciferase mRNA.

miR-30a-3p = experiment: miRNA sensor Luc-T30 dual luciferase assay; format: cell-based; settings: endogenously expressed miR-30; FIG. 6, FIG. 7
Excerpt: (A) Design of a siRNA duplex against miR-30a precursor (siRNA-p) and a control siRNA duplex (siRNA-c). The miR-30a precursor is provided as SEQ ID NO:1. The siRNA target region is represented by nucleotides 21-40 of SEQ ID NO:1. The siRNA-p is provided as SEQ ID NO:2 and the siRNA-c is provided as SEQ ID NO:3. The double stranded siRNA is shown on the bottom and predicted pairing between one siRNA strand (blue) and the precursor target (green).
In FIG. 6, top left panel, the blue arrowheads in Luc-T30 indicate artificial target sequence against miR-30a-3p. Luc-AT30 has an artificial sequence complementary to that in Luc-T30. […] Relative luciferase activity was calculated by dividing the reporter (Firefly) luciferase activity with co-transfected Renilla luciferase activity. Luciferase activity was decreased by transfecting Luc-T30 in HepG2 (orange bars) without changes in the amount of its mRNA (blue bars). Error bars represent the standard deviation (SD) of three triplicate experiments. […] Error bars represent the standard deviation (SD) from three triplicate experiments. **P=0.004; *****P=0.00001.
This reporter contains the target sequence of miR-30. In the miR-30 system, the endogenously expressed miR-30 was used and, in this cell line, miR-30 has been processed completely. Thus, the addition of enoxacin had no effect.

miR-125a = experiment: Lin28 3'-UTR luciferase reporter in cells expressing miR-125a; format: cell-based
Excerpt: Referring now to FIG. 8, the 3′-UTR of Lin28 mRNA, a target mRNA of miR-125a, was inserted into the 3′ end of luciferase reporter gene. Lin28-Del is the construct without the target sequence of miR-125a. Lin28 or Lin28-Del was transfected into cells expressing miR-125a. Although RNAi-E had no effect on Lin28-Del, the translation of Lin28 was suppressed by the expression of miR-125a.

RNAi-293-EGFP/RFP cells = experiment: dose-response of GFP/RFP signal ratio in RNAi-293-EGFP/RFP cells; format: cell-based; settings: at 5 μM; 48 hours; versus Enoxacin 50 μM and 100 μM
Procedure: FIGS. 11A-11D show drug dose-responses for representative metal/Fe chelators. RNAi-293-EGFP/RFP cells were treated with each compound for 48 hours and the GFP/RFP signal ratio was plotted for relative RNAi-enhancing activity (%) using E50 (Enoxacin at 50 μM) as 100% activity.
An additional chemical library screen was performed to identify enhancers and suppressors of RNAi activity. In this screen, RNAi-293-EGFP cells were treated with compounds from a chemical library and endogenous RNAi activity was measured by GFP readout. Four particular compounds were identified in this screen. Further, all four compounds identified in this screen have metal/Fe chelating ability.
These four compounds were further tested by obtaining a drug dose-response curve for each compound at a wide range of concentrations in RNAi-293-EGFP/RFP. After 48 hours, GFP signals were measured by SpectraMax M2^e (Molecular Devices Corporation, Sunnyvale, Calif.). The GFP signals were then normalized over RFP signals to account for variability of cell numbers among wells and then plotted for relative RNAi-enhancing activity, which is set to 100% for a known RNAi-enhancing small molecule, e.g., Enoxacin at 50 μM.

tumor cell models = settings: cited from earlier work
bladder cancer cells = settings: cited from earlier work

CCn1cc(C(=O)O)c(=O)c2cc(F)c(N3CCNCC3)nc21 [enoxacin]
siRNA-mediated mRNA degradation and gene knock-down [1]: enhance siRNA-mediated mRNA degradation and gene knock-down
Clone#3, 293-EGFP-siGFP cells GFP signal intensity with RNAi-E [2]: 20289248 and 16615771 and 18695953 and 20015152
EGFP, 293-EGFP cells RNAi-E alone (EGFP, 293-EGFP cells): 177574932 and 1.78E+08 and 229622488 and 212666320 and 2.13E+08 and 138649048
knock-down efficiency of shRNA against luciferase mRNA [3]: increased the knock-down efficiency
miRNA-mediated translational suppression of Luc-T30 reporter (miR-30a-3p): no effect
suppression of the translation of Lin28 by miR-125a (miR-125a; Lin28 construct, FIG. 8): further enhanced this suppression
effect on Lin28-Del (miR-125a; construct without the target sequence of miR-125a): no effect

O=C(N/N=C/c1c(O)ccc2ccccc12)c1ccncc1 [compound 311, 2-hydroxy-1-naphthylaldehyde isonicotinoyl hydrazone]
RNAi-enhancing activity relative to Enoxacin (RNAi-293-EGFP/RFP cells): more effective than Enoxacin
anti-proliferative activity (tumor cell models): anti-proliferative activity; also recorded: anti-proliferation activity

c1ccc(CNC2CC(NCc3ccccn3)CC(NCc3ccccn3)C2)nc1 (stereo not shown) [Tachpyridine, tachpyridine]
anti-proliferative activity (tumor cell models): anti-proliferative activity
ferritin synthesis (bladder cancer cells): inhibit
proliferation of bladder cancer cells in culture (bladder cancer cells): inhibit

siRNA-c: control siRNA duplex, SEQ ID NO:3 (UGGUAGCAGUCAUGGCACATT; chemistry not given here)
miRNA-mediated translational suppression of Luc-T30 reporter (miR-30a-3p): no effect

siRNA-p: siRNA duplex against miR-30a precursor, SEQ ID NO:2 (UGGAAGCUGUGAAGCCACATT; chemistry not given here)
miRNA-mediated translational suppression of Luc-T30 reporter (miR-30a-3p): reversed the translational suppression

O=C(O)c1cn(C2CC2)c2cc(N3CCNCC3)c(F)cc2c1=O [ciprofloxacin]
knock-down efficiency of shRNA against luciferase mRNA [3]: increased the knock-down efficiency
siRNA-mediated mRNA degradation [3]: enhance siRNA-mediated mRNA degradation
